Measured values as given in ChEMBL document CHEMBL3792294, “Efficient synthesis of new 2,3-dihydrooxazole-spirooxindoles hybrids as antimicrobial agents” (2016).
Values after ≈ are worked out from the molar mass of the structure shown. Active and inactive are the calls of the source. The rule behind the calls is not given here.

Legend:
Type in all cases: functional
Klebsiella pneumoniae = test: Antibacterial activity against Klebsiella pneumoniae after 24 hrs by spectrophotometry
[1] = test system: Pseudoperonospora cubensis; test: Antifungal activity against Pseudoperonospora cubensis after 72 hrs by agar diffusion method
Enterobacter = test: Antibacterial activity against Enterobacter after 24 hrs by spectrophotometry
Bacillus subtilis = test: Antibacterial activity against Bacillus subtilis after 24 hrs by spectrophotometry
Phytophthora infestans = test: Antifungal activity against Phytophthora infestans after 72 hrs by agar diffusion method
Podosphaera fuliginea = test: Antifungal activity against Sphaerotheca fuliginea after 72 hrs by agar diffusion method
Pyricularia oryzae = test: Antifungal activity against Pyricularia oryzae after 48 hrs by agar diffusion method

Compound	MBC (Klebsiella pneumoniae)	MIC (Klebsiella pneumoniae)	MIC [1]	MBC (Enterobacter) [µg/mL]	MIC (Enterobacter) [µg/mL]	MBC (Bacillus subtilis)	MIC (Bacillus subtilis)	MIC (Phytophthora infestans)	MIC (Podosphaera fuliginea)	MIC (Pyricularia oryzae)
O=C(NN1C(c2ccccc2)=C(c2ccccc2)OC12C(=O)Nc1ccccc12)c1ccc([N+](=O)[O-])cc1 (stereo not given)	inactive	inactive	18 µg/mL (≈ 35.7 µM)	50 (≈ 99.1 µM)	30 (≈ 59.5 µM)	50 µg/mL (≈ 99.1 µM)	30 µg/mL (≈ 59.5 µM)	12 µg/mL (≈ 23.8 µM)	12 µg/mL (≈ 23.8 µM)	16 µg/mL (≈ 31.7 µM)
Cc1ccc(OCC(=O)NN2C(c3ccccc3)=C(c3ccccc3)OC23C(=O)Nc2ccccc23)cc1 (stereo not given)	inactive	inactive	12 µg/mL (≈ 23.8 µM)	100 (≈ 199 µM)	50 (≈ 99.3 µM)	inactive	inactive	14 µg/mL (≈ 27.8 µM)	12 µg/mL (≈ 23.8 µM)	8 µg/mL (≈ 15.9 µM)
NYSTATIN			18 µg/mL					18 µg/mL	18 µg/mL	20 µg/mL
O=C(NN1C(c2ccccc2)=C(c2ccccc2)OC12C(=O)Nc1ccccc12)c1ccc(Cl)cc1 (stereo not given)	100 µg/mL (≈ 202 µM)	50 µg/mL (≈ 101 µM)	12 µg/mL (≈ 24.3 µM)	50 (≈ 101 µM)	30 (≈ 60.7 µM)	100 µg/mL (≈ 202 µM)	50 µg/mL (≈ 101 µM)	14 µg/mL (≈ 28.3 µM)	12 µg/mL (≈ 24.3 µM)	14 µg/mL (≈ 28.3 µM)
Cc1cccc(OCC(=O)NN2C(c3ccccc3)=C(c3ccccc3)OC23C(=O)Nc2ccccc23)c1 (stereo not given)	inactive	inactive	inactive	100 (≈ 199 µM)	40 (≈ 79.4 µM)	inactive	inactive	12 µg/mL (≈ 23.8 µM)	inactive	20 µg/mL (≈ 39.7 µM)
O=C(COc1ccc(Cl)cc1Cl)NN1C(c2ccccc2)=C(c2ccccc2)OC12C(=O)Nc1ccccc12 (stereo not given)	50 µg/mL (≈ 89.5 µM)	25 µg/mL (≈ 44.8 µM)	inactive	100 (≈ 179 µM)	40 (≈ 71.6 µM)	50 µg/mL (≈ 89.5 µM)	25 µg/mL (≈ 44.8 µM)	inactive	14 µg/mL (≈ 25.1 µM)	inactive
O=C(O)c1cn(C2CC2)c2cc(N3CCNCC3)c(F)cc2c1=O [CIPROFLOXACIN]	25 µg/mL (≈ 75.4 µM)	6.25 µg/mL (≈ 18.9 µM)		25 (≈ 75.4 µM)	10.2 (≈ 30.9 µM)	12.5 µg/mL (≈ 37.7 µM)	6.25 µg/mL (≈ 18.9 µM)			
O=C(NN1C(c2ccccc2)=C(c2ccccc2)OC12C(=O)Nc1ccccc12)c1ccccc1O (stereo not given)	inactive	inactive	12 µg/mL (≈ 25.2 µM)	50 (≈ 105 µM)	40 (≈ 84.1 µM)	100 µg/mL (≈ 210 µM)	70 µg/mL (≈ 147 µM)	14 µg/mL (≈ 29.4 µM)	12 µg/mL (≈ 25.2 µM)	16 µg/mL (≈ 33.6 µM)
COc1ccc(C(=O)NN2C(c3ccccc3)=C(c3ccccc3)OC23C(=O)Nc2ccccc23)cc1 (stereo not given)	inactive	inactive	14 µg/mL (≈ 28.6 µM)	100 (≈ 204 µM)	50 (≈ 102 µM)	200 µg/mL (≈ 409 µM)	100 µg/mL (≈ 204 µM)	14 µg/mL (≈ 28.6 µM)	8 µg/mL (≈ 16.3 µM)	12 µg/mL (≈ 24.5 µM)
Cc1ccccc1OCC(=O)NN1C(c2ccccc2)=C(c2ccccc2)OC12C(=O)Nc1ccccc12 (stereo not given)	inactive	inactive	8 µg/mL (≈ 15.9 µM)	50 (≈ 99.3 µM)	30 (≈ 59.6 µM)	inactive	inactive	18 µg/mL (≈ 35.7 µM)	12 µg/mL (≈ 23.8 µM)	17 µg/mL (≈ 33.8 µM)
O=C(COc1ccccc1)NN1C(c2ccccc2)=C(c2ccccc2)OC12C(=O)Nc1ccccc12 (stereo not given)	inactive	inactive	12 µg/mL (≈ 24.5 µM)	100 (≈ 204 µM)	40 (≈ 81.7 µM)	100 µg/mL (≈ 204 µM)	50 µg/mL (≈ 102 µM)	14 µg/mL (≈ 28.6 µM)	16 µg/mL (≈ 32.7 µM)	15 µg/mL (≈ 30.6 µM)
